The test system of series [1] is Toxoplasma gondii. In words: Anti-tachyzoite activity against RFP-expressing Toxoplasma gondii RH Type 1 infected in NHDF cells assessed as destruction of host cells at 1.25 uM incubated for 96 hrs followed by removal of medium containing compounds and subsequent addition of fresh medium without compounds and measured after 8 days by crystal violet staining based optical microscopic analysis. The format is functional, organism-based.

Series [2] has as its system Toxoplasma gondii. The series is described as follows: Anti-tachyzoite activity against RFP-expressing Toxoplasma gondii RH Type 1 infected in NHDF cells assessed as inhibition of parasite proliferation measured after 72 hrs by fluorescence plate reader. The class given is functional. Particulars: RH Type 1, NHDF, read-out: ED50 (the source's name).
Series [3] can be described thus: Cytotoxicity against NHDF cells assessed as reduction in cell viability measured after 96 hrs by MTS assay. The format is cell-based. Particulars: human.
Series [4] in a line: Selectivity index, ratio of CC50 for cytotoxicity against NHDF cells to ED50 for Anti-tachyzoite activity against RFP-expressing Toxoplasma gondii RH Type 1 infected in NHDF cells. The format is toxicity, cell-based. Particulars: human; read-out: Selectivity Index.
The test system of series [5] is Toxoplasma gondii. In words: Anti-tachyzoite activity against RFP-expressing Toxoplasma gondii RH Type 1 infected in NHDF cells assessed as destruction of host cells at 2.5 uM incubated for 96 hrs followed by removal of medium containing compounds and subsequent addition of fresh medium without compounds and measured after 8 days by crystal violet staining based optical microscopic analysis. The format is functional, organism-based.

Series [6] concerns Toxoplasma gondii. In words: Anti-tachyzoite activity against RFP-expressing Toxoplasma gondii RH Type 1 infected in NHDF cells assessed as inhibition of parasite proliferation measured after 96 hrs by fluorescence plate reader. The class given is functional. To be noted: RH Type 1, NHDF, read-out: ED50 (the source's name).
In series [7] the test system is Toxoplasma gondii. In words: Induction of vacuole formation in Toxoplasma gondii ESG reporter strain infected in NHDF cells assessed as increase in BAG positive vacuole number pretreated with PYR for 3 days followed by compound treatment and further incubated for 4 days. The class given is functional, organism-based. To be noted: time 4.0 day.
Series [8] has as its system Toxoplasma gondii. The series is described as follows: Anti-bradyzoite activity against Toxoplasma gondii ESG reporter strain infected in NHDF cells assessed as cell lysis measured after 21 days. The format is functional, organism-based. Particulars: time 21.0 day.
Series [9] relates to Toxoplasma gondii. The series is described as follows: Anti-tachyzoite activity against RFP-expressing Toxoplasma gondii RH Type 1 infected in NHDF cells assessed as destruction of host cells at 5 uM incubated for 96 hrs followed by removal of medium containing compounds and subsequent addition of fresh medium without compounds and measured after 8 days by crystal violet staining based optical microscopic analysis. The format is functional, organism-based.

The subject of series [10] is Toxoplasma gondii. The series is described as follows: Anti-tachyzoite activity against RFP-expressing Toxoplasma gondii RH Type 1 infected in NHDF cells assessed as inhibition of plaque formation at 0.625 uM incubated for 96 hrs followed by removal of medium containing compounds and subsequent addition of fresh medium without compounds and measured after 8 days by crystal violet staining based optical microscopic analysis. The class given is functional, organism-based.

The test system of series [11] is Toxoplasma gondii. In words: Anti-bradyzoite activity against Toxoplasma gondii ESG reporter stain infected in NHDF cells assessed as parasitic infection at 1.25 uM measured after 60 days by optical microscopic analysis. The format is functional, organism-based. Particulars: time 60.0 day.
The test system of series [12] is Toxoplasma gondii. The series is described as follows: Anti-tachyzoite activity against RFP-expressing Toxoplasma gondii RH Type 1 infected in NHDF cells assessed as inhibition of plaque formation at 1.25 uM incubated for 96 hrs followed by removal of medium containing compounds and subsequent addition of fresh medium without compounds and measured after 8 days by crystal violet staining based optical microscopic analysis. The format is functional, organism-based.

The subject of series [13] is Toxoplasma gondii. In words: Anti-bradyzoite activity against Toxoplasma gondii ESG reporter stain infected in NHDF cells assessed as viable cells recovery causing host cell lysis at 0.625 uM measured after 15 days by optical microscopic analysis. The class given is functional, organism-based. To be noted: time 15.0 day.
The test system of series [14] is Toxoplasma gondii. In words: Anti-bradyzoite activity against Toxoplasma gondii ESG reporter strain infected in NHDF cells assessed as increase in BAG-positive vacuole number at 1.25 uM pretreated with PYR for 3 days followed by compound treatment and further incubated for 4 days. The format is functional, organism-based. To be noted: time 4.0 day.
The subject of series [15] is Toxoplasma gondii. The series is described as follows: Anti-bradyzoite activity against Toxoplasma gondii ESG reporter strain infected in NHDF cells assessed as induction of cyst formation measured after 5 days under alkaline condition by TEM analysis. The format is functional, organism-based. Particulars: time 5.0 day.
In series [16] the test system is Toxoplasma gondii. In words: Anti-bradyzoite activity against Toxoplasma gondii ESG reporter strain infected in NHDF cells assessed as morphological alteration at 1.25 uM measured after 5 days under alkaline condition by TEM analysis. To be noted: time 5.0 day. The format is functional, organism-based.
In series [17] the test system is Toxoplasma gondii. The series is described as follows: Anti-tachyzoite activity against RFP-expressing Toxoplasma gondii RH Type 1 infected in NHDF cells assessed as inhibition of plaque formation at 1.25 uM when host cells pretreated for 3 days followed by infection and removal of medium containing compounds and subsequent addition of fresh medium without compounds and measured after 7 days by crystal violet staining based optical microscopic analysis. Particulars: time 3.0 day. The class given is functional, organism-based.

For series [18], the system named is Toxoplasma gondii. The series is described as follows: Anti-tachyzoite activity against RFP-expressing Toxoplasma gondii RH Type 1 infected in NHDF cells assessed as plaque formation at 0.625 uM incubated for 96 hrs followed by removal of medium containing compounds and subsequent addition of fresh medium without compounds and measured after 8 days by crystal violet staining based optical microscopic analysis. The format is functional, organism-based.

The subject of series [19] is Toxoplasma gondii. In words: Anti-bradyzoite activity against Toxoplasma gondii ESG reporter strain infected in NHDF cells assessed as cell lysis at 2 uM measured after 21 days. The class given is functional, organism-based. To be noted: time 21.0 day.

One may read the CC50 as the concentration giving 50% cytotoxicity.

Calls of active or inactive are those of the source. The calls are words filed in the database; no cut-off is given here.

On to `N#Cc1cccc(Nc2ccc3ccc4cccnc4c3n2)c1`, for which the result in series [1], in [5], in series [7], in [8] and in [9] was Active. The EC50 in series [2] was 240 nM; in series [6] it was 310 nM. Further, the CC50 at 96 h in series [3] was determined as 30500 nM. Besides, the selectivity ratio in series [4] amounted to 98.

With `Clc1cccc(Nc2ccc3ccc4cccnc4c3n2)c1`, the result in series [10], in series [12], in [13], in series [14], in series [15] and in series [16] was Active. In addition, the result in series [7] and in [17] was Active. The figures for the EC50 in series [2] and in series [6] were 360 nM and 580 nM, respectively. In addition, the outcome in series [11] was inactive. Further, in [3], the CC50 at 96 h was found to be 24900 nM. Further, the selectivity ratio in series [4] was 42.

For `COc1cccc(Nc2ccc3ccc4cccnc4c3n2)c1`, the EC50 in series [2] turned out to be 250 nM; in [6], 340 nM. In [11], the outcome was inactive. For the same molecule, the result in series [12], in series [14], in [18] and in [17] was Active. Moreover, the cytotoxic concentration (CC50) at 96 h in series [3] is 37700 nM. In series [4], the selectivity ratio was determined as 111.

As to `c1cnc2c(c1)ccc1cccnc12` [PHENANTHROLINE], the outcome in series [19] was Active. The values for the EC50 in series [2] and in [6] were 2010 nM and 2280 nM, respectively. The cytotoxic concentration (CC50) at 96 h in series [3] was 70200 nM. Further, the selectivity ratio in series [4] was determined as 31.

`COc1ccc(Nc2ccc3ccc4cccnc4c3n2)cc1`: the EC50 in series [2] was found to be 310 nM; in series [6], 290 nM. The outcome in series [11] was inactive. For the same molecule, the outcome in series [12], in series [13], in [14] and in series [18] was Active. For the same molecule, the CC50 at 96 h in series [3] amounted to 18400 nM. The selectivity ratio in series [4] was determined as 63.

Take `Fc1cccc(Nc2ccc3ccc4cccnc4c3n2)c1`: the result in series [10], in series [12], in series [14], in series [15], in series [16] and in [7] was Active. Also, the result in series [17] was Active. Further, the EC50 came to 270 nM in series [2] and 330 nM in series [6]. The result in series [11] was inactive. The CC50 at 96 h in series [3] came to 24900 nM. Further, the selectivity ratio in series [4] was determined as 75.

Regarding `Fc1ccc(Nc2ccc3ccc4cccnc4c3n2)cc1`, the outcome in series [1], in series [14] and in series [18] was Active. The EC50 in [2] came out at 250 nM; in series [6], 310 nM. The result in series [11] was inactive. The CC50 at 96 h in series [3] came out at 26900 nM. For the same molecule, in [4], the selectivity ratio was determined as 96.

Turning to `c1ccc(Nc2ccc3ccc4cccnc4c3n2)cc1`, the EC50 in [2] stood at 530 nM; in series [6] it was 670 nM. In series [12], the result was Active. Besides, the CC50 at 96 h in series [3] was 34600 nM. Moreover, the selectivity ratio in [4] was determined as 73.

Source of the values: ChEMBL document CHEMBL5055660, “In vitro activity of N-phenyl-1,10-phenanthroline-2-amines against tachyzoites and bradyzoites of Toxoplasma gondii” (Bioorg Med Chem, 2021).
